Test results reported in US9241489B2, “Plant growth regulating compounds” (Syngenta Participations AG, priority 2011, dated 2016).

A melting point of 201 to 202 °C was found for `N#Cc1cnc(NC(=O)CCC(=O)O)cn1` [Compound A1, 4-[(5-cyanopyrazin-2-yl)amino]-4-oxo-butanoic acid] in this work.
